Biological target: T1, Chk1 (Homo sapiens, UniProt O14757)
T1 construct: purchased Upstate Biotechnology
T1 sequence (O14757 1-476): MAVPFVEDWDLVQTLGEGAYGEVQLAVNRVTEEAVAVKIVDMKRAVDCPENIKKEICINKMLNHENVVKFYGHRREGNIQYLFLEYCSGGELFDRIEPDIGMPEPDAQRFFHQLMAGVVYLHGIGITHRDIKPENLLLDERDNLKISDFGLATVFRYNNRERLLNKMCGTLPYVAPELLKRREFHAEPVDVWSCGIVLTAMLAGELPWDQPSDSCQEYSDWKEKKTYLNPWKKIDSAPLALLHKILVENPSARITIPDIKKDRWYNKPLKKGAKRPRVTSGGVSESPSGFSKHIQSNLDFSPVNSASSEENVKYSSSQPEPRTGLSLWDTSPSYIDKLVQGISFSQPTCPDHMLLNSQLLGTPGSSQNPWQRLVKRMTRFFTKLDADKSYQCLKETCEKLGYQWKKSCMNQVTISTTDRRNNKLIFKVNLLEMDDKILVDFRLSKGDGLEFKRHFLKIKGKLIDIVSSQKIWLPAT
Assay: Chk1 kinase assay: incorporation of γ-33P ATP into immobilized myelin basic protein
Format: biochemical
Settings: read-out: Chk1 IC50
Method: Chk1 and Chk2 assays were performed by measuring incorporation of γ-^33P ATP into immobilized myelin basic protein (MBP). High binding white 384 well plates (Greiner) were coated with MBP (Sigma #M-1891) by incubation of 60 ul/well of 20 μg/ml MBP in Tris-buffered saline (TBS; 50 mM Tris pH 8.0, 138 mM NaCl, 2.7 mM KCl) for 24 hours at 4° C. Plates were washed 3× with 100 μl TBS. Kinase reactions were carried out in a total volume of 34 μl in kinase buffer (5 mM Hepes pH 7.6, 15 mM NaCl, 0.01% bovine gamma globulin (Sigma #I-5506), 10 mM MgCl2, 1 mM DTT, 0.02% TritonX-100). Compound dilutions were performed in DMSO and added to assay wells to a final DMSO concentration of 1%. Each data point was measured in duplicate, and at least two duplicate assays were performed for each individual compound determination. Chk1 and Chk2 enzymes (Upstate Biotechnology) were added to final concentrations of 10 nM (Chk1) or 20 nM (Chk2). A mixture of unlabeled ATP and γ-^33P ATP was added to start the reaction (2×10^6 cpm of γ-^33P ATP per well (3000 Ci/mmole) and either 10 μM or 30 μM unlabeled ATP (for Chk1 and Chk2 assays respectively). The reaction was carried out for 1 hour at room temperature with shaking. Plates were washed 7× with TBS, followed by the addition of 50 μl/well scintillation fluid (Wallac). Plates were read using a Wallac Trilux counter. This is only one format of such assays, various other formats are possible, as known to those skilled in the art.
The above assay procedure can be used to determine the IC50 for inhibition and/or the inhibition constant Ki. The IC50 is defined as the concentration of compound required to reduce the enzyme activity by 50% under the conditions of the assay. […] The Ki for a compound may be determined from the IC50 based on three assumptions. First, only one compound molecule binds to the enzyme and there is no cooperativity. […] Third, the enzymatic rate of the enzyme-inhibitor complex is zero. The rate (i.e., compound concentration) data are fitted to the equation: […]

`CNC(=O)c1nc(-c2cccc(C(=O)NCc3cccc(Cl)c3)c2)cnc1N` [Example 125, 3-amino-6-[3-({[(3-chlorophenyl)methyl]amino}carbonyl)phenyl]-N-methylpyrazine-2-carboxamide] and `CNC(=O)c1nc(-c2cccc(C(=O)NCc3ccccc3Cl)c2)cnc1N` [Example 128, 3-amino-6-[3-({[(2-chlorophenyl)methyl]amino}carbonyl)phenyl]-N-methylpyrazine-2-carboxamide] fall in the same range of IC50: 0.05 to 1 µM for the first, 0.05 to 1 µM for the second.

First: CNC(=O)c1nc(-c2cccc(C(=O)NCC3CCCCC3)c2)cnc1N [Example 126, 3-amino-6-(3-{[(cyclohexylmethyl)amino]carbonyl}phenyl)-N-methylpyrazine-2-carboxamide]
Second: CNC(=O)c1nc(-c2cccc(C(=O)NC3CCCCC3)c2)cnc1N [Example 133, 3-amino-6-{3-[(cyclohexylamino)carbonyl]phenyl}-N-methylpyrazine-2-carboxamide]
The IC50 of the first is lower: 0.05 to 1 µM for the first, 1 to 10 µM for the second.

First: CNC(=O)c1nc(-c2cccc(C(=O)NCC(C)c3ccccc3)c2)cnc1N (stereo not shown) [Example 127, 3-amino-N-methyl-6-(3-{[(2-phenylpropyl)amino]carbonyl}phenyl)pyrazine-2-carboxamide]
Second: CNC(=O)c1nc(-c2cccc(C(=O)N[C@H](C)c3ccccc3)c2)cnc1N [Example 144, 3-amino-N-methyl-6-[3-({[(1R)-1-phenylethyl]amino}carbonyl)phenyl]pyrazine-2-carboxamide]
The IC50 of the first is lower: 0.05 to 1 µM for the first, 1 to 10 µM for the second.

`CNC(=O)c1nc(-c2cccc(C(=O)NCCc3ccccc3Cl)c2)cnc1N` [Example 129, 3-amino-6-[3-({[2-(2-chlorophenyl)ethyl]amino}carbonyl)phenyl]-N-methylpyrazine-2-carboxamide] and `CNC(=O)c1nc(-c2cccc(C(=O)NCCc3ccccc3OC)c2)cnc1N` [Example 130, 3-amino-N-methyl-6-{3-[({2-[2-(methyloxy)phenyl]ethyl}amino)carbonyl]phenyl}pyrazine-2-carboxamide] fall in the same range of IC50: 0.05 to 1 µM for the first, 0.05 to 1 µM for the second.

`CNC(=O)c1nc(-c2cccc(C(=O)NCCc3ccc(F)cc3)c2)cnc1N` [Example 131, 3-amino-6-[3-({[2-(4-fluorophenyl)ethyl]amino}carbonyl)phenyl]-N-methylpyrazine-2-carboxamide] and `CNC(=O)c1nc(-c2cccc(C(=O)NCCc3cccs3)c2)cnc1N` [Example 132, 3-amino-N-methyl-6-[3-({[2-(2-thienyl)ethyl]amino}carbonyl)phenyl]pyrazine-2-carboxamide] fall in the same range of IC50: 0.05 to 1 µM for the first, 0.05 to 1 µM for the second.

`CNC(=O)c1nc(-c2cccc(C(=O)NCC3CCN(C(=O)OC(C)(C)C)CC3)c2)cnc1N` [Example 134, 1,1-dimethylethyl 4-({[(3-{5-amino-6-[(methylamino)carbonyl]pyrazin-2-yl}phenyl)carbonyl]amino}methyl)piperidine-1-carboxylate] and `CNC(=O)c1nc(-c2cccc(C(=O)NCC3CCNCC3)c2)cnc1N` [Example 135, 3-amino-N-methyl-6-(3-{[(piperidin-4-ylmethyl)amino]carbonyl}phenyl)pyrazine-2-carboxamide] fall in the same range of IC50: 0.05 to 1 µM for the first, 0.05 to 1 µM for the second.

`CNC(=O)c1nc(-c2cccc(-c3noc(-c4ccccc4)n3)c2)cnc1N` [Example 136, 3-amino-N-methyl-6-[3-(5-phenyl-1,2,4-oxadiazol-3-yl)phenyl]pyrazine-2-carboxamide] and `CNC(=O)c1nc(-c2cccc(-c3noc(Cc4ccccc4)n3)c2)cnc1N` [Example 137, 3-amino-N-methyl-6-{3-[5-(phenylmethyl)-1,2,4-oxadiazol-3-yl]phenyl}pyrazine-2-carboxamide] fall in the same range of IC50: 1 to 10 µM for the first, 1 to 10 µM for the second.

`CNC(=O)c1nc(-c2cccc(-c3noc(CCc4ccccc4)n3)c2)cnc1N` [Example 138, 3-amino-N-methyl-6-{3-[5-(2-phenylethyl)-1,2,4-oxadiazol-3-yl]phenyl}pyrazine-2-carboxamide] and `CNC(=O)c1nc(-c2cccc(C(=O)Nc3ccccc3)c2)cnc1N` [Example 142, 3-amino-N-methyl-6-{3-[(phenylamino)carbonyl]phenyl}pyrazine-2-carboxamide] fall in the same range of IC50: 1 to 10 µM for the first, 1 to 10 µM for the second.

Compared with `CNC(=O)c1nc(-c2cccc(C(=O)NC(C)(C)C)c2)cnc1N` [Example 139, 3-amino-6-(3-{[(1,1-dimethylethyl)amino]carbonyl}phenyl)-N-methylpyrazine-2-carboxamide], `CNC(=O)c1nc(-c2cccc(C(=O)N[C@@H](C)c3ccccc3)c2)cnc1N` [Example 145, 3-amino-N-methyl-6-[3-({[(1S)-1-phenylethyl]amino}carbonyl)phenyl]pyrazine-2-carboxamide] is lower in IC50: 1 to 10 µM for the first, 0.05 to 1 µM for the second. The second is the more potent here.

First: CNC(=O)c1nc(-c2cccc(C(=O)N[C@@H]3c4ccccc4C[C@@H]3O)c2)cnc1N [Example 140, 3-amino-6-[3-({[(1R,2S)-2-hydroxy-2,3-dihydro-1H-inden-1-yl]amino}carbonyl)phenyl]-N-methylpyrazine-2-carboxamide]
Second: CNC(=O)c1nc(-c2cccc(C(=O)N[C@H]3c4ccccc4C[C@H]3O)c2)cnc1N [Example 141, 3-amino-6-[3-({[(1S,2R)-2-hydroxy-2,3-dihydro-1H-inden-1-yl]amino}carbonyl)phenyl]-N-methylpyrazine-2-carboxamide]
The IC50 of the first is lower: 0.05 to 1 µM for the first, 1 to 10 µM for the second. The first is the more potent here.

First: CNC(=O)c1nc(-c2cccc(C(=O)N3Cc4ccccc4C3)c2)cnc1N [Example 143, 3-amino-6-[3-(1,3-dihydro-2H-isoindol-2-ylcarbonyl)phenyl]-N-methylpyrazine-2-carboxamide]
Second: CNC(=O)c1nc(-c2cccc(C(=O)N[C@@H]3C[C@H]3c3ccccc3)c2)cnc1N [Example 148, 3-amino-N-methyl-6-[3-({[(1R,2S)-2-phenylcyclopropyl]amino}carbonyl)phenyl]pyrazine-2-carboxamide]
The IC50 of the first is higher: 1 to 10 µM for the first, 0.05 to 1 µM for the second. The second is the more potent here.

`CC[C@@H](NC(=O)c1cccc(-c2cnc(N)c(C(=O)NC)n2)c1)c1ccccc1` [Example 146, 3-amino-N-methyl-6-[3-({[(1R)-1-phenylpropyl]amino}carbonyl)phenyl]pyrazine-2-carboxamide] and `CC[C@H](NC(=O)c1cccc(-c2cnc(N)c(C(=O)NC)n2)c1)c1ccccc1` [Example 147, 3-amino-N-methyl-6-[3-({[(1S)-1-phenylpropyl]amino}carbonyl)phenyl]pyrazine-2-carboxamide] fall in the same range of IC50: 1 to 10 µM for the first, 1 to 10 µM for the second.

`CNC(=O)c1nc(-c2ccc(C(=O)OCc3ccccc3)cc2)cnc1N` [Example 149, phenylmethyl 4-{5-amino-6-[(methylamino)carbonyl]pyrazin-2-yl}benzoate] and `CNC(=O)c1nc(-c2ccc(C(=O)NCc3ccccc3)cc2)cnc1N` [Example 150, 3-amino-N-methyl-6-(4-{[(phenylmethyl)amino]carbonyl}phenyl)pyrazine-2-carboxamide] cannot be ordered by IC50: no less than 10 µM for the first, 1 to 10 µM for the second.

`CNC(=O)c1nc(-c2ccc(C(=O)NCCc3ccccc3)cc2)cnc1N` [Example 151, 3-amino-N-methyl-6-(4-{[(2-phenylethyl)amino]carbonyl}phenyl)pyrazine-2-carboxamide] and `CNC(=O)c1nc(-c2ccc(C(=O)NCc3ccc(C)cc3)cc2)cnc1N` [Example 153, 3-amino-N-methyl-6-[4-({[(4-methylphenyl)methyl]amino}carbonyl)phenyl]pyrazine-2-carboxamide] fall in the same range of IC50: 0.05 to 1 µM for the first, 0.05 to 1 µM for the second.

`CNC(=O)c1nc(-c2ccc(C(=O)NCc3ccc(Cl)cc3Cl)cc2)cnc1N` [Example 152, 3-amino-6-[4-({[(2,4-dichlorophenyl)methyl]amino}carbonyl)phenyl]-N-methylpyrazine-2-carboxamide] and `CNC(=O)c1nc(-c2cccc(NC(=O)Cc3ccc(Cl)cc3)c2)cnc1N` [Example 155, 3-amino-6-(3-{[(4-chlorophenyl)acetyl]amino}phenyl)-N-methylpyrazine-2-carboxamide] fall in the same range of IC50: 0.05 to 1 µM for the first, 0.05 to 1 µM for the second.

In the case of `CNC(=O)c1nc(-c2ccc(C(=O)N[C@H]3CCc4ccccc43)cc2)cnc1N` [Example 154, 3-amino-6-(4-{[(1S)-2,3-dihydro-1H-inden-1-ylamino]carbonyl}phenyl)-N-methylpyrazine-2-carboxamide], the IC50 is reported as 0.05 to 1 µM.
